Results reported in ChEMBL document CHEMBL5604063, “ASAP - DENV-2 NS2B-NS3 protease fluorescence dose response” (2024).
“And” between values parts separate entries of the source, which are not always exact repeats. Equal entries are not always repeated.

How the values were obtained:
[1] = biological target: T1, Genome polyprotein (dengue virus type 2, UniProt P29990); type: functional, Thailand/16681/1984
[2] = biological target: T1, Genome polyprotein; type: functional, Thailand/16681/1984; remark: listed apart in the source

T1 sequence (P29990 1346-1475 limits assumed): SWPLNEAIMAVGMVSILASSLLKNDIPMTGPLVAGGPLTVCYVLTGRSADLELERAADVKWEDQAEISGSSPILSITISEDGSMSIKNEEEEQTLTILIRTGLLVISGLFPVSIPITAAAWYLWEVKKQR
T1 sequence (P29990 1476-2093 limits assumed): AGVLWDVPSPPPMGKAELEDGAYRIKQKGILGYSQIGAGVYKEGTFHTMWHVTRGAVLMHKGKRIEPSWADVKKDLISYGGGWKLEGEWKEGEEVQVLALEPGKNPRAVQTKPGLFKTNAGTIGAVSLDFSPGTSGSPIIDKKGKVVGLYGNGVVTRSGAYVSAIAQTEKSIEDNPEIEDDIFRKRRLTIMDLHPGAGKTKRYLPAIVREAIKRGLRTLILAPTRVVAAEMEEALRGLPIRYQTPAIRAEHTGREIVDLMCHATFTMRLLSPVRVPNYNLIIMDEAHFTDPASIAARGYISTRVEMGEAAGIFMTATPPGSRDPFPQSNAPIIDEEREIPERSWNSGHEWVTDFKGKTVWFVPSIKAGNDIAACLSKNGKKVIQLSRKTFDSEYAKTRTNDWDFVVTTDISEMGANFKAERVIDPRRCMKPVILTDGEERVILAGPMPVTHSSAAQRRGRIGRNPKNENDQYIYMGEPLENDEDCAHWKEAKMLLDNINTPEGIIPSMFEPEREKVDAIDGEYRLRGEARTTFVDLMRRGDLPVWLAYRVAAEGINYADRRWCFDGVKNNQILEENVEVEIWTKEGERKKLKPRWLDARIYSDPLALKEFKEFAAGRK

SMILES | IC50 [1] | IC50 [2]
COc1cc(Br)cc2c1NC(=O)[C@]2(Nc1ccc2c(c1)CNC2)C(N)=O | > 99.5 µM | > 100 µM
O=C(Nc1ccc2c(c1)CNC2)c1cccc(-c2cnco2)c1 | 27.6 µM | 57.7 µM and 70.3 µM
COCCOc1ccc(Cl)cc1C(=O)Nc1ccc2c(c1)CNC2 | > 99.5 µM | > 100 µM
O=C(Nc1ccc2c(c1)CNC2)N1C[C@H](C2CC2)C[C@@H]1C1CC1 | > 99.5 µM | > 100 µM
O=C(NCc1ccc2c(c1)CCNC2)c1cc(Cl)cc2[nH]ncc12 | > 99.5 µM | > 100 µM
Cc1nc2cc(Cl)ccc2cc1C(=O)Nc1ccc2c(c1)CNC2 | > 99.5 µM | > 100 µM
C[C@H]1C[C@H](c2cccc(CN)c2)[C@@H](c2cc(Cl)cc(NC(=O)OCc3ccccc3)c2)C1 | 55.7 µM | 77.6 µM
Cn1ncc(C(=O)Nc2cc(CCCN)ccn2)c1O | > 99.5 µM | > 100 µM
O=C(Nc1ccc2c(c1)CNC2)C1(c2ccc(Cl)cc2)CCCC1 | > 99.5 µM | > 100 µM
O=C1Cc2c(cccc2C(=O)Nc2ccc3c(c2)C(=O)OC3)N1 | > 99.5 µM | > 100 µM
C[C@H]1Oc2c(cccc2C(=O)Nc2ccc3c(c2)CNC3)NC1=O | 89.3 µM | 90.4 µM
Cc1c(C(=O)Nc2cc3c(cn2)OCC3)cc(C2CC2)n1C | > 99.5 µM | > 100 µM
O=C(Nc1ccc2c(c1)CNC2)c1cc(Br)cc2[nH]c(C3CCOCC3)nc12 | > 99.5 µM | > 100 µM
CC(C)COc1ccc(Cl)cc1C(=O)Nc1ccc2c(c1)CNC2 | > 99.5 µM | > 100 µM
CC(C)(C)O[C@H]1CCCN(C(=O)Nc2ccc3c(c2)CNC3)C1 | > 99.5 µM | > 100 µM
CC1(C)CN(C(=O)Nc2ccc3c(c2)CNC3)CC(F)(F)C1 | > 99.5 µM | > 100 µM
CNC(=O)[C@]1(Nc2ccc3c(c2)CNC3)C(=O)Nc2ccc(Cl)cc21 | > 99.5 µM | > 100 µM
Cc1ccc2cc(Cl)cc(C(=O)Nc3ccc4c(c3)CNC4)c2n1 | 85.7 µM | 53.2 µM and > 100 µM
N#C[C@H](Nc1ccc2c(c1)CNC2)c1ccnc(C(F)(F)F)c1 | > 99.5 µM | > 100 µM
C#Cc1ccnc(NC(=O)c2cc(C3CC3)n(C)c2C)c1 | > 99.5 µM | > 100 µM
O=C(Nc1ccc2c(c1)CNC2)N1CCC[C@](O)(c2ccccc2)C1 | > 99.5 µM | > 100 µM
O=C(Nc1ccc2c(c1)CNC2)N1CCC[C@H](CC2CCC2)C1 | > 99.5 µM | > 100 µM

SMILES | IC50 [1] | IC50 [2]
O=C1CCN(c2cc(Cl)cc(C(=O)Nc3ccc4c(c3)CNC4)c2)C(=O)N1 | > 99.5 µM | > 100 µM
CCN(CC)C[C@H]1CCCN(C(=O)Nc2ccc3c(c2)CNC3)C1 | > 99.5 µM | > 100 µM
Cn1ncc2c(C(=O)Nc3ccc4c(c3)CNC4)cc(C3CC3)nc21 | > 99.5 µM | > 100 µM
COCCc1ccnc(NC(=O)c2cc(C3CC3)n(C)c2C)c1 | > 99.5 µM | > 100 µM
CCCN1C(=O)[C@](Nc2ccc3c(c2)CNC3)(C(=O)NC)c2ccccc21 | > 99.5 µM | > 100 µM
O=C(Nc1ccc2c(c1)CNC2)c1cc(Cl)cc2ccncc12 | > 99.5 µM | > 100 µM
C[C@H]1CC2(CN1C(=O)Nc1ccc3c(c1)CNC3)CC(F)(F)C2 | > 99.5 µM | > 100 µM
O=C(Nc1ccc2c(c1)CNC2)N1CC[C@H](CC(F)(F)F)C1 | > 99.5 µM | > 100 µM
O=C1Cc2c(cc(Br)cc2C(=O)Nc2ccc3c(c2)CNC3)N1 | > 99.5 µM | > 100 µM
CCCN1C(=O)[C@](Nc2ccc3c(c2)CNC3)(C(=O)NC)c2cc(Cl)ccc21 | > 99.5 µM | > 100 µM
Cc1c[nH]c2ncnc(C(=O)Nc3ccc4c(c3)CNC4)c12 | > 99.5 µM | > 100 µM
O=C(Nc1ccc2c(c1)CNC2)[C@H]1C[C@@H]1c1ccccc1 | > 99.5 µM | > 100 µM
Nc1noc2cccc(C(=O)Nc3ccc4c(c3)CNC4)c12 | > 99.5 µM | > 100 µM
Clc1cc([C@H](C#Cc2ccccc2)Nc2ccc3c(c2)CNC3)c2cn[nH]c2c1 | > 99.5 µM | 88.8 µM
Cc1nc2c(C(=O)Nc3ccc4c(c3)CNC4)cccc2[nH]1 | > 99.5 µM | > 100 µM
O=C(Nc1ccc2c(c1)CNC2)c1cc(Br)cc2[nH]c(=O)[nH]c12 | 67.1 µM | 54.4 µM
Cc1cc2c(C(=O)Nc3ccc4c(c3)CNC4)cccc2[nH]1 | > 99.5 µM | > 100 µM
O=C(NCCCn1ccnc1)[C@H](Nc1ccc2c(c1)CNC2)c1cc(Cl)cc(C2CC2)c1 | > 99.5 µM | > 100 µM
CC(C)c1nccn1C[C@H]1CCCN1C(=O)Nc1ccc2c(c1)CNC2 | > 99.5 µM | > 100 µM
O=C1COc2c(cccc2C(=O)Nc2ccc3c(c2)CNC3)N1 | > 99.5 µM | > 100 µM
O=C(Nc1ccc2c(c1)CNC2)c1cccc2ccncc12 | > 99.5 µM | > 100 µM
O=C(Nc1ccc2c(c1)CNC2)c1cc(Cl)nc2[nH]ccc12 | > 99.5 µM | > 100 µM

SMILES | IC50 [1] | IC50 [2]
Cc1nc2c(C(=O)Nc3ccc4c(c3)CNC4)cc(Cl)cc2[nH]1 | > 99.5 µM | 80.9 µM
N#C[C@H](Nc1ccc2c(c1)CNC2)c1cncc2ccccc12 | > 99.5 µM | > 100 µM
O=C(Nc1ccc2c(c1)CNC2)c1ccc2nc(O)sc2c1 | > 99.5 µM | > 100 µM
O=C(Nc1ccc2c(c1)CNC2)c1cc2ncccc2s1 | > 99.5 µM | > 100 µM
N#Cc1ccc(C(=O)Nc2ccc3c(c2)CNC3)cc1Cl | > 99.5 µM | > 100 µM
COC(=O)C(C)(C)NC(=O)[C@H](Nc1ccc2c(c1)CNC2)c1cc(Cl)cc(C2CC2)c1 | > 99.5 µM | > 100 µM
Cc1[nH]c2ccccc2c1[C@H]1CCN(C(=O)Nc2ccc3c(c2)CNC3)C1 | > 99.5 µM | > 100 µM
O=C1COc2cc(C(=O)Nc3ccc4c(c3)CNC4)ccc2N1 | > 99.5 µM | > 100 µM
O=C(Nc1ccc2c(c1)CNC2)c1cc(C(F)(F)F)nc2[nH]ccc12 | > 99.5 µM | > 100 µM
O=C(Nc1ccc2c(c1)CNC2)c1ccc(-c2cncs2)cc1 | > 99.5 µM | > 100 µM
CCOC(=O)c1ncoc1CNC(=O)[C@H](Nc1ccc2c(c1)CNC2)c1cc(Cl)cc(C2CC2)c1 | > 99.5 µM | > 100 µM
O=C(NC1CCOCC1)[C@H](Nc1ccc2c(c1)CNC2)c1cc(Cl)cc2[nH]ncc12 | > 99.5 µM | > 100 µM
O=C(Nc1ccc2c(c1)CNC2)c1cccc2sccc12 | > 99.5 µM | > 100 µM
O=C(Nc1ccc2c(c1)CNC2)c1cncc2[nH]ncc12 | > 99.5 µM | > 100 µM
O=C(Nc1ccc2c(c1)CNC2)N1CCC[C@H]1c1cc(C(F)(F)F)no1 | > 99.5 µM | > 100 µM
O=C(Nc1ccc2c(c1)CNC2)c1ccc2[nH]cnc2c1 | > 99.5 µM | > 100 µM
O=C(Nc1ccc2c(c1)CNC2)c1cc(F)c2[nH]ccc2c1 | > 99.5 µM | > 100 µM
O=C(Nc1ccc2c(c1)CNC2)c1ccnc2[nH]ccc12 | > 99.5 µM | > 100 µM
O=C(Nc1ccc2c(c1)CNC2)c1ccc2cc[nH]c2c1 | > 99.5 µM | > 100 µM
Cc1cccc(-c2nc3c(C(=O)Nc4ccc5c(c4)CNC5)cc(Cl)cc3[nH]2)c1O | 7.23 µM and 5.37 µM and 4.3 µM | 18.7 µM
O=C(Nc1ccc2c(c1)CNC2)c1cccc2[nH]c(=O)[nH]c12 | > 99.5 µM | 65.3 µM
CC[C@H]1CN(C(=O)Nc2ccc3c(c2)CNC3)C[C@@H]1c1ccc(OC)cc1 | > 99.5 µM | > 100 µM

SMILES | IC50 [1] | IC50 [2]
O=C(Nc1ccc2c(c1)CNC2)c1ncnc2[nH]ccc12 | > 99.5 µM | > 100 µM
NCc1cc(Cl)cc(C(=O)Nc2ccc3c(c2)C(=O)OC3)c1 | > 99.5 µM | > 100 µM
O=C(Nc1ccc2c(c1)CNC2)c1cc(Cl)cc2[nH]c(-c3ncnn3C3CC3)nc12 | > 99.5 µM | > 100 µM
O=C(Nc1ccc2c(c1)CNC2)c1c(Cl)ccc2c1OCO2 | > 99.5 µM | > 100 µM
CC(C)CNC(=O)[C@H](Nc1ccc2c(c1)CNC2)c1cc(Cl)cc2[nH]ncc12 | > 99.5 µM | > 100 µM
CC(=O)Nc1cccc(C(=O)Nc2ccc3c(c2)CNC3)n1 | > 99.5 µM | > 100 µM
CC(C)(C)NC(=O)[C@H](Nc1ccc2c(c1)CNC2)c1cc(Cl)cc(C2CC2)c1 | > 99.5 µM | > 100 µM
CCc1cnccc1-c1nc2c(C(=O)Nc3ccc4c(c3)CNC4)cc(Cl)cc2[nH]1 | > 99.5 µM | > 100 µM
CCOCCNC(=O)[C@H](Nc1ccc2c(c1)CNC2)c1cc(Cl)cc2[nH]ncc12 | > 99.5 µM | > 100 µM
O=C(Nc1ccc2c(c1)CNC2)N1CCC[C@H](Cc2nccs2)C1 | > 99.5 µM | > 100 µM
CCCNC(=O)[C@H](Nc1ccc2c(c1)CNC2)c1cc(Cl)cc2[nH]ncc12 | > 99.5 µM | > 100 µM
CC1(C)C(=O)Nc2ccc(C(=O)Nc3ccc4c(c3)CNC4)cc21 | > 99.5 µM | > 100 µM
O=C(Nc1ccc2c(c1)CNC2)c1ccc2ncsc2c1 | > 99.5 µM | > 100 µM
O=C1Cc2c(cccc2C(=O)Nc2ccc3c(c2)CNCCC3)N1 | > 99.5 µM | 90.1 µM
CNC(=O)[C@H](Nc1ccc2c(c1)C(=O)OC2)c1cc(Cl)cc2[nH]ncc12 | > 99.5 µM | > 100 µM
O=C(Nc1ccc2c(c1)CNC2)c1cc(Cl)cc2[nH]c(C3(n4ccnn4)CC3)nc12 | > 99.5 µM | > 100 µM
O=C(Nc1ccc2c(c1)CNC2)c1cccc2[nH]cnc12 | > 99.5 µM | > 100 µM
O=C(Nc1ccc2c(c1)CNC2)c1ccc2[nH]ccc2c1 | > 99.5 µM | > 100 µM
C[C@H](C1CC1)n1ncc2c(C(=O)Nc3ccc4c(c3)CNC4)cc(C3CC3)nc21 | > 99.5 µM | > 100 µM
Cn1cc2c(C(=O)Nc3ccc4c(c3)CNC4)cccc2n1 | > 99.5 µM | > 100 µM
Cc1csc(CO[C@H]2CCN(C(=O)Nc3ccc4c(c3)CNC4)C2)n1 | > 99.5 µM | > 100 µM
